The results in this text go back to ChEMBL document CHEMBL1157539, “Thousands of chemical starting points for antimalarial lead identification” (Nature, 2010).

The test system of the experiment is Plasmodium falciparum. As to the kind of experiment: GSK_TCMDC: Inhibition of Plasmodium falciparum 3D7 in whole erythrocytes, using parasite LDH activity as an index of growth. Conditions: Plasmodium falciparum, 3D7. In kind it is functional, organism-based.

The molecule `CCCC(=O)Nc1ccc(OCCCN(Cc2ccccc2F)c2ccc(C#N)c(C(F)(F)F)c2)cc1` yielded an XC50 of 595 nM.

As to `COc1ccc(CNCc2ccccc2)cc1-c1cccc(S(=O)(=O)NCCN2CCCC2)c1`, the XC50 turned out to be 786 nM.

Regarding `O=C(/C=C/c1cc(C(F)(F)F)ccc1F)NC1CCC(CN2CCC(c3c[nH]c4ccccc34)CC2)CC1` (stereo not given), the XC50 was 818 nM.

Molecule `c1ccc(C(OCCC2CCN(Cc3cccc4cccnc34)CC2)c2ccccc2)cc1` gave an XC50 of 874 nM.

Turning to `O=C(NCCN1CCC(NC(=O)c2ccc(-c3ccccn3)s2)CC1)c1cccc(C(F)(F)F)c1`, the XC50 came out at 861 nM.

Molecule `CCCCc1ccccc1NS(=O)(=O)c1ccc(OC)c(N2CCNCC2)c1` displayed an XC50 of 1380 nM.

`CNC(=O)c1cncc(/C=C/c2ccccc2S(N)(=O)=O)c1` displayed an XC50 of 694 nM.

`N=C(N)Nc1nc(-c2cccc(NC(=O)NCCc3c[nH]c4ccc(OCc5ccccc5)cc34)c2)cs1` came in with an XC50 of 805 nM.

Molecule `O=S(=O)(Nc1cccc(CCN2CCCCC2CCN2CCCC2)c1)c1ccc2ccccc2c1` (stereo not given) came in with an XC50 of 1070 nM.

Turning to `COc1ccc2ncc(F)c(CCN3CCC(CNC(=O)C(=O)c4c[nH]c5ccccc45)CC3)c2n1`, the XC50 was 389 nM.

Regarding `Oc1cc(Nc2ccnc3cc(-c4ccc(CN5CCCCC5)o4)c(Cl)cc23)c(Cl)cc1F`, the XC50 was determined as 1260 nM.

For `Clc1ccc2c(NN=Cc3ccccc3)ccnc2c1`, the XC50 is 755 nM.

Regarding `O=C(Nc1ccc(C(F)(F)F)cc1)NC1CCN(c2ccnc3cc(Cl)ccc23)CC1`, the XC50 came out at 178 nM.

The molecule `CCOc1c(CNCCCNc2cc(O)c3ccccc3n2)cc(I)cc1OC` gave an XC50 of 1170 nM.

Take `O=C(NC1CCN(Cc2ccccc2O)C1)c1cccc(C(F)(F)F)c1` (stereo not given): the XC50 was 730 nM.

`CCCCCC(C)C(C)c1cc(O)c2c(c1)OC(C)(C)CC2=Cc1ccncc1` (stereo not given) had an XC50 of 213 nM.

With `CCCCCCC(C)(C)c1cc(O)c2c(c1)OC(C)(C)c1ccncc1-2`, the XC50 is 178 nM.

Consider `CCC1CN2CCc3c([nH]c4ccc(OC)cc34)C2CC1CC1NCCc2cc(OC)c(OC)cc21` (stereo not given), for which the XC50 came out at 862 nM.

For `O=C(/C=C/c1ccc(Cl)c(Cl)c1)NCCCCCN1CCCN(C(=O)Nc2cc(Cl)cc(Cl)c2)CC1`, the XC50 was determined as 791 nM.

`COc1ccccc1-n1c(-c2ccc3ccccc3c2)csc1=NC(=O)c1ccccc1`: the XC50 was determined as 204 nM.

In turn, `CC(C)CNC(=O)c1cncc(-c2ccc(CNCCCc3ccccc3)cc2)c1` showed an XC50 of 770 nM.

As for `COc1cccc(C(=O)NCCc2cccc(Cl)c2)c1Oc1ccccc1`, the XC50 is 844 nM.

`COc1ccc(C(=O)NCc2ccc(N)nc2C)cc1Nc1ncc(-c2cccc(N(C)C)c2)cn1` yielded an XC50 of 897 nM.

For `CS(=O)(=O)N(c1ccccc1)c1cc(C(=O)N[C@@H](Cc2ccccc2)[C@H](O)CNC2CCCCC2)cc(N2CCCC2=O)c1`, the XC50 is 78.1 nM.

With `CC(C)(C)c1ccc(N2C(N)=NC(N)=NC2(C)C)cc1Cl`, the XC50 was found to be 6.56 nM.

Turning to `COc1c(C2CCN(CCCCNC(=O)c3ccc(-c4ccc(Cl)cc4)c(OCCN(C)C)c3)CC2)ccc2c1CCCC2`, the XC50 was determined as 190 nM.

Regarding `CCN(CC)CC(O)c1cc(-c2ccc(OC)cc2)nc2cc(Cl)ccc12` (stereo not given), the XC50 is 67.1 nM.

`N#Cc1cccc(NC(=O)Nc2ccc3c(c2)CCN(C2CCC2)CC3)c1` returned an XC50 of 843 nM.

In turn, `COc1cc(NCC(O)CNc2cc(OC)c3ccccc3n2)nc2ccccc12` gave an XC50 of 109 nM.

Take `CC(C)C1C(O)=C(c2ccc3ccccc3c2)C(=O)N1Cc1ccsc1` (stereo not given): the XC50 came to 1070 nM.

`COc1ccc(CNCc2ccccc2)cc1-c1ccc(S(=O)(=O)NCCN2CCCC2)c(F)c1` registered an XC50 of 1140 nM.

As for `COCCNCc1cccc(-c2cccc(CN(C(=O)Nc3ccccc3)C3CCN(Cc4ccccc4)CC3)c2)c1`, the XC50 is 126 nM.

Turning to `O=C(NCc1cccc(Cl)c1)c1ccc(CNC2CCN(Cc3ccccc3)CC2)cc1`, the XC50 came to 884 nM.

`CC(NC(=O)c1ccc(O)c(-c2ccc(Cl)c(Cl)c2)c1)C(=O)NC1CCCCC1` (stereo not given) had an XC50 of 844 nM.

Regarding `COc1ccc(CC(=O)NC(CCCN2CCC(c3ccccc3)CC2)c2ccc(Cl)c(Cl)c2)cc1OC` (stereo not given), the XC50 is 1050 nM.
